Assay results reported in PubChem BioAssay AID1963840 (Molecular Pharmacology Branch, DTP, NCI, 2024).

Test system: 695427-040-R-J1-PDC complex spheroid viability
Assay: Anticancer human tumor 695427-040-R-J1-PDC patient-derived colon adenocarcinoma cell line growth inhibition [POLQ]
Conditions: for IC50: curve of first compound; for viability, T/C: stronger effect = lower value
How it was run: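 Complex spheroid viability model combining PDC tumour cells with endothelial (HUVEC) and MSC stromal cells. Novobiocin, ART-558 or RP6685 were tested singly and in combination with standard and investigational anticancer drugs. Each was titrated in half-log steps from near clinical Cmax, or from 10 microM where Cmax was unknown.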

[1] = second compound 0.0316 µM, first compound 0.0316 µM
[2] = second compound 0.0316 µM, first compound 0.1 µM
[3] = second compound 0.0316 µM, first compound 0.316 µM
[4] = second compound 0.0316 µM, first compound 1 µM
[5] = second compound 0.0316 µM, first compound 3.16 µM
[6] = second compound 0.0316 µM, first compound 10 µM
[7] = second compound 0.1 µM, first compound 0.0316 µM
[8] = second compound 0.1 µM, first compound 0.1 µM
[9] = second compound 0.1 µM, first compound 0.316 µM
[10] = second compound 0.1 µM, first compound 1 µM
[11] = second compound 0.1 µM, first compound 3.16 µM
[12] = second compound 0.1 µM, first compound 10 µM
[13] = second compound 0.316 µM, first compound 0.0316 µM
[14] = second compound 0.316 µM, first compound 0.1 µM
[15] = second compound 0.316 µM, first compound 0.316 µM
[16] = second compound 0.316 µM, first compound 1 µM
[17] = second compound 0.316 µM, first compound 3.16 µM
[18] = second compound 0.316 µM, first compound 10 µM
[19] = second compound 1 µM, first compound 0.0316 µM
[20] = second compound 1 µM, first compound 0.1 µM
[21] = second compound 1 µM, first compound 0.316 µM
[22] = second compound 1 µM, first compound 1 µM
[23] = second compound 1 µM, first compound 3.16 µM
[24] = second compound 1 µM, first compound 10 µM
[25] = second compound 3.16 µM, first compound 0.0316 µM
[26] = second compound 3.16 µM, first compound 0.1 µM
[27] = second compound 3.16 µM, first compound 0.316 µM
[28] = second compound 3.16 µM, first compound 1 µM
[29] = second compound 3.16 µM, first compound 3.16 µM
[30] = second compound 3.16 µM, first compound 10 µM
[31] = second compound 10 µM, first compound 0.0316 µM
[32] = second compound 10 µM, first compound 0.1 µM
[33] = second compound 10 µM, first compound 0.316 µM
[34] = second compound 10 µM, first compound 1 µM
[35] = second compound 10 µM, first compound 3.16 µM
[36] = second compound 10 µM, first compound 10 µM
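Note: spheroids exposed to compounds for seven days.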
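Throughout, for viability, T/C: 100% = DMSO vehicle control viability.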

C=CC(=O)N1CCN(c2nc(=O)n(-c3c(C)ccnc3C(C)C)c3nc(-c4c(O)cccc4F)c(F)cc23)C(C)C1 (stereo not given) + Nc1ccc(C#CCN(C(=O)Cc2ncc(C(F)(F)F)cc2C(F)(F)F)c2ccc(F)cc2)nn1
IC50 (second compound 0.0316 µM): > 10 µM
IC50 (second compound 0.1 µM): > 10 µM
IC50 (second compound 0.316 µM): > 10 µM
IC50 (second compound 1 µM): > 10 µM
IC50 (second compound 3.16 µM): > 10 µM
IC50 (second compound 10 µM): > 10 µM
viability, T/C [1]: 108%
viability, T/C [2]: 104%
viability, T/C [3]: 110%
viability, T/C [4]: 111%
viability, T/C [5]: 110%
viability, T/C [6]: 104%
viability, T/C [7]: 108%
viability, T/C [8]: 110%
viability, T/C [9]: 107%
viability, T/C [10]: 92.2%
viability, T/C [11]: 104%
viability, T/C [12]: 113%
viability, T/C [13]: 116%
viability, T/C [14]: 107%
viability, T/C [15]: 102%
viability, T/C [16]: 105%
viability, T/C [17]: 120%
viability, T/C [18]: 95.3%
viability, T/C [19]: 102%
viability, T/C [20]: 95.2%
viability, T/C [21]: 97.9%
viability, T/C [22]: 101%
viability, T/C [23]: 107%
viability, T/C [24]: 96.9%
viability, T/C [25]: 105%
viability, T/C [26]: 101%
viability, T/C [27]: 104%
viability, T/C [28]: 97.3%
viability, T/C [29]: 107%
viability, T/C [30]: 98.3%
viability, T/C [31]: 97.2%
viability, T/C [32]: 84.4%
viability, T/C [33]: 102%
viability, T/C [34]: 96.3%
viability, T/C [35]: 121%
viability, T/C [36]: 97.6%

CC1COCCN1c1cc(C2(O)CC3CCC(C2)O3)c2cnn(-c3ccn[nH]3)c2n1 (stereo not given) + Nc1ccc(C#CCN(C(=O)Cc2ncc(C(F)(F)F)cc2C(F)(F)F)c2ccc(F)cc2)nn1
IC50 (second compound 0.0316 µM): > 10 µM
IC50 (second compound 0.1 µM): > 10 µM
IC50 (second compound 0.316 µM): > 10 µM
IC50 (second compound 1 µM): > 10 µM
IC50 (second compound 3.16 µM): > 10 µM
IC50 (second compound 10 µM): > 10 µM
viability, T/C [1]: 103%
viability, T/C [2]: 92.9%
viability, T/C [3]: 83%
viability, T/C [4]: 78.6%
viability, T/C [5]: 65.9%
viability, T/C [6]: 60.5%
viability, T/C [7]: 111%
viability, T/C [8]: 96.5%
viability, T/C [9]: 88%
viability, T/C [10]: 76.3%
viability, T/C [11]: 69%
viability, T/C [12]: 56.3%
viability, T/C [13]: 99.4%
viability, T/C [14]: 96.7%
viability, T/C [15]: 76.7%
viability, T/C [16]: 72.4%
viability, T/C [17]: 70.3%
viability, T/C [18]: 54.5%
viability, T/C [19]: 106%
viability, T/C [20]: 95.3%
viability, T/C [21]: 84%
viability, T/C [22]: 70.5%
viability, T/C [23]: 66.4%
viability, T/C [24]: 49.5%
viability, T/C [25]: 104%
viability, T/C [26]: 87%
viability, T/C [27]: 86.4%
viability, T/C [28]: 66.6%
viability, T/C [29]: 62.4%
viability, T/C [30]: 58.6%
viability, T/C [31]: 106%
viability, T/C [32]: 91.2%
viability, T/C [33]: 78.3%
viability, T/C [34]: 65.1%
viability, T/C [35]: 58.9%
viability, T/C [36]: 56.9%

CCc1cc2c(N3CCc4c(cc(Cn5ccnc5)cc4-c4cn(C)nc4C(F)(F)F)C3=O)ccnc2c(OC)n1 + Nc1ccc(C#CCN(C(=O)Cc2ncc(C(F)(F)F)cc2C(F)(F)F)c2ccc(F)cc2)nn1
IC50 (second compound 0.0316 µM): > 10 µM
IC50 (second compound 0.1 µM): > 10 µM
IC50 (second compound 0.316 µM): > 10 µM
IC50 (second compound 1 µM): > 10 µM
IC50 (second compound 3.16 µM): > 10 µM
IC50 (second compound 10 µM): > 10 µM
viability, T/C [1]: 102%
viability, T/C [2]: 106%
viability, T/C [3]: 94.6%
viability, T/C [4]: 95.8%
viability, T/C [5]: 105%
viability, T/C [6]: 96%
viability, T/C [7]: 115%
viability, T/C [8]: 112%
viability, T/C [9]: 101%
viability, T/C [10]: 100%
viability, T/C [11]: 105%
viability, T/C [12]: 102%
viability, T/C [13]: 118%
viability, T/C [14]: 115%
viability, T/C [15]: 93%
viability, T/C [16]: 104%
viability, T/C [17]: 103%
viability, T/C [18]: 87.6%
viability, T/C [19]: 116%
viability, T/C [20]: 95.1%
viability, T/C [21]: 102%
viability, T/C [22]: 104%
viability, T/C [23]: 114%
viability, T/C [24]: 84.5%
viability, T/C [25]: 116%
viability, T/C [26]: 104%
viability, T/C [27]: 93.6%
viability, T/C [28]: 104%
viability, T/C [29]: 103%
viability, T/C [30]: 90%
viability, T/C [31]: 101%
viability, T/C [32]: 93.2%
viability, T/C [33]: 101%
viability, T/C [34]: 110%
viability, T/C [35]: 97.7%
viability, T/C [36]: 96.7%

COc1cc2cc(C(=O)CCC(=O)O)sc2cc1OC + Nc1ccc(C#CCN(C(=O)Cc2ncc(C(F)(F)F)cc2C(F)(F)F)c2ccc(F)cc2)nn1
IC50 (second compound 0.0316 µM): > 10 µM
IC50 (second compound 0.1 µM): > 10 µM
IC50 (second compound 0.316 µM): > 10 µM
IC50 (second compound 1 µM): > 10 µM
IC50 (second compound 3.16 µM): > 10 µM
IC50 (second compound 10 µM): > 10 µM
viability, T/C [1]: 111%
viability, T/C [2]: 92%
viability, T/C [3]: 103%
viability, T/C [4]: 115%
viability, T/C [5]: 105%
viability, T/C [6]: 92.1%
viability, T/C [7]: 109%
viability, T/C [8]: 118%
viability, T/C [9]: 103%
viability, T/C [10]: 102%
viability, T/C [11]: 115%
viability, T/C [12]: 96.6%
viability, T/C [13]: 111%
viability, T/C [14]: 109%
viability, T/C [15]: 94.1%
viability, T/C [16]: 109%
viability, T/C [17]: 105%
viability, T/C [18]: 98.9%
viability, T/C [19]: 109%
viability, T/C [20]: 100%
viability, T/C [21]: 104%
viability, T/C [22]: 108%
viability, T/C [23]: 120%
viability, T/C [24]: 89.7%
viability, T/C [25]: 111%
viability, T/C [26]: 101%
viability, T/C [27]: 102%
viability, T/C [28]: 99.1%
viability, T/C [29]: 106%
viability, T/C [30]: 86.4%
viability, T/C [31]: 105%
viability, T/C [32]: 105%
viability, T/C [33]: 98.7%
viability, T/C [34]: 87.4%
viability, T/C [35]: 102%
viability, T/C [36]: 102%

O=C(Nc1ccc(O)c(NS(=O)(=O)c2ccc(F)cc2)c1)c1ccc(-c2ccccc2)cc1 + Nc1ccc(C#CCN(C(=O)Cc2ncc(C(F)(F)F)cc2C(F)(F)F)c2ccc(F)cc2)nn1
IC50 (second compound 0.0316 µM): > 10 µM
IC50 (second compound 0.1 µM): > 10 µM
IC50 (second compound 0.316 µM): > 10 µM
IC50 (second compound 1 µM): > 10 µM
IC50 (second compound 3.16 µM): > 10 µM
IC50 (second compound 10 µM): > 10 µM
viability, T/C [1]: 108%
viability, T/C [2]: 107%
viability, T/C [3]: 105%
viability, T/C [4]: 107%
viability, T/C [5]: 109%
viability, T/C [6]: 91.9%
viability, T/C [7]: 112%
viability, T/C [8]: 105%
viability, T/C [9]: 92.8%
viability, T/C [10]: 104%
viability, T/C [11]: 104%
viability, T/C [12]: 97.3%
viability, T/C [13]: 106%
viability, T/C [14]: 106%
viability, T/C [15]: 99.8%
viability, T/C [16]: 101%
viability, T/C [17]: 108%
viability, T/C [18]: 87.4%
viability, T/C [19]: 112%
viability, T/C [20]: 97.4%
viability, T/C [21]: 99.1%
viability, T/C [22]: 105%
viability, T/C [23]: 119%
viability, T/C [24]: 80.2%
viability, T/C [25]: 108%
viability, T/C [26]: 104%
viability, T/C [27]: 99.2%
viability, T/C [28]: 109%
viability, T/C [29]: 112%
viability, T/C [30]: 112%
viability, T/C [31]: 99%
viability, T/C [32]: 94%
viability, T/C [33]: 104%
viability, T/C [34]: 94.7%
viability, T/C [35]: 93.5%
viability, T/C [36]: 88.1%
